Columns and labels:
Type in all cases: in vivo
onion young plants = experiment: Dwarfing test of onion young plant; conditions: for Plant Height / Dwarfing Rate: 5 ml per cell on 5th day, measured 27th day; for Dwarfing Rate: vs comparative group
Experimental: (§1) 50 g of sodium tripolyphosphate was dissolved in 400 ml of distilled water at 80° C., 17.5 g of cinnamic acid was added to the sodium tripolyphosphate solution and dissolved by stirring, the resultant solution was diluted with distilled water until the total volume of solution was 500 ml, and thus 3.5% cinnamic acid aqueous solution (pH 6.5) was prepared. The aqueous solution was further diluted with distilled water 70 times or 17.5 times, and 0.05% cinnamic acid aqueous solution and 0.2% cinnamic acid aqueous solution were prepared, respectively.
(§2) Nursery soil for house use was filled into paper joint pots (each with 24 cells: 34×43×50 mm/cell), water was sufficiently given to the soil, and seeds of carrots were sowed. After seeding, the pot was placed in the same greenhouse as described above to sprout. Subsequently, on the 5th day, the cinnamic aqueous acid solutions were added to the nursery soil in the joint pots. One of the joint pots (24 cells) was prepared as a 0.05% cinnamic acid aqueous solution addition group, and 5 ml of the 0.05% cinnamic acid aqueous solution was added to the nursery soil of each cell. Another one of the join pots was prepared as a 0.2% cinnamic acid aqueous solution addition group, and 5 ml of the 0.2% cinnamic acid aqueous solution was added to the nursery soil of each cell. The other one of the joint pots was prepared as a comparative group in which 5 ml of water is added to each cell, instead of the cinnamic acid aqueous solution. Subsequently, the cultivation of carrot young plants in each group was continued under general conditions. On the 27th day, the heights of young plants in each group were measured, the dwarfing rate (%) was calculated, and the dwarfing effect of cinnamic acid aqueous solution on carrot young plants was examined. […].
In the same way as in Example 5 except that seeds of onion were sowed, the dwarfing effect of cinnamic acid aqueous solution on onion young plants was examined. […]

turnip young plants = experiment: Dwarfing test of turnip young plant; conditions: for Plant Height / Dwarfing Rate: 5 ml per cell on 4th day, measured 20th day; for Dwarfing Rate: vs comparative group
Experimental: as §1, §2
In the same way as in Example 12 except that seeds of color turnip were sowed, the dwarfing effect of cinnamic acid aqueous solution on turnip young plants was examined. […]

hydrangea young plants = experiment: Dwarfing test of hydrangea young plant; conditions: for Plant Height / Dwarfing Rate: 100 ml per pot on 42nd day, measured 72nd day; for Dwarfing Rate: vs comparative group
Experimental: Dwarfing rate (%)=[(the plant height of the comparative group)−(the plant height of an addition group)/the plant height of the comparative group]×100 […] A cutting of a fresh shoot of hydrangea was planted in the soil of each pot (diameter of 10.5 cm and depth of 8.5 cm) and cultivated continuously after the cuttage. On the 42nd day, top pinching was performed, a young plant was adjusted to have a height of 8 cm and four leaves and planted and fixed in a pot (diameter of 14.5 cm and depth of 14.5 cm) At this point, 100 ml of 0.2% or 0.4% cinnamic acid aqueous solution prepared as described above was added to the nursery soil of 8 pots, and thus 0.2% cinnamic acid aqueous solution addition group and 0.4% cinnamic acid aqueous solution addition group were prepared. Further, 8 pots were prepared as a comparative group on which general watering was performed. The cultivation of young plants of each group was continued. On the 72nd day, heights of young plants in each group were measured, the dwarfing rate (%) was calculated, and the dwarfing effect of cinnamic acid aqueous solution on hydrangea was examined. From the results in Table 26, it became evident that the cinnamic acid solutions are effective in dwarfing hydrangea young plants.

Poinsettia young plants = experiment: Dwarfing test of poinsettia young plant; conditions: for Plant Height / Dwarfing Rate: 100 ml per pot to nursery soil on 49th and 78th days, measured 93rd day; for Dwarfing Rate: vs comparative group
Experimental: 18.4 g of potassium hydroxide was dissolved in 400 ml of distilled water at 20° C., 50 g of cinnamic acid was added to the potassium hydroxide solution and dissolved by stirring, the resultant solution was diluted with distilled water until the total volume of solution was 500 ml, and thus a cinnamic acid aqueous solution (pH 8.8) was prepared in a concentration of 10%. The aqueous solution was further diluted with distilled water 33.3 times or 20 times, and thus a cinnamic acid aqueous solution in a concentration of 0.3% or 0.5% was prepared, respectively.
Poinsettia young plants with heights of about 10 cm were planted and fixed in pots (diameter of 14.5 cm and depth of 14.5 cm), and cultivated continuously. On the 49th and 78th days, 100 ml of 0.3% or 0.5% cinnamic acid aqueous solution prepared as described above was added to the nursery soil of each of 30 pots, and thus 0.3% cinnamic acid aqueous solution addition group and 0.5% cinnamic acid aqueous solution addition group were obtained. Further, 30 pots were prepared as a comparative group on which general watering was performed. The cultivation of young plants of each group was continued. On the 93rd day, the length from a surface of the soil of each cultivation pot to a head portion of the poinsettia young plant was measured, the dwarfing rate (%) was calculated using the following equation, and thus the dwarfing effect of cinnamic acid aqueous solution was examined (the same way was applied to following examples).
Dwarfing rate (%)=[(the plant height of the comparative group)−(the plant height of an addition group)/the plant height of the comparative group]×100
In addition, “plant height” in all the tables below was an average of heights from a surface of the soil of a pot used in each test to a head portion of the plant.

tomato young plants = experiment: Dwarfing test of tomato young plant; conditions: for Plant Height / Dwarfing Rate: 5 ml per cell on 7th day, measured 20th day; for Dwarfing Rate: vs comparative group
Experimental: as §1, §2
In the same way as in Example 12 except that seeds of tomato were sowed, and that the cinnamic acid solutions were added to the nursery soil of the joint pot on the 7th day, the dwarfing effect of cinnamic acid aqueous solution on tomato young plants was examined. […]

SMILES: O=C(O)C=Cc1ccccc1 [cinnamic acid]
- Plant Height (onion young plants; 0.05% aqueous solution): 8.0 cm
- Dwarfing Rate (onion young plants; 0.05% aqueous solution): 15.8%
- Plant Height (onion young plants; 0.2% aqueous solution): 7.5 cm
- Dwarfing Rate (onion young plants; 0.2% aqueous solution): 21.1%
- dwarfing effect (onion young plants; onion young plants, 0.05% and 0.2% aqueous solutions): effective
- Plant Height (turnip young plants; 0.05% aqueous solution): 7.0 cm
- Dwarfing Rate (turnip young plants; 0.05% aqueous solution): 23.1%
- Plant Height (turnip young plants; 0.2% aqueous solution): 6.0 cm
- Dwarfing Rate (turnip young plants; 0.2% aqueous solution): 34.1%
- dwarfing effect (turnip young plants; turnip young plants, 0.05% and 0.2% aqueous solutions): effective
- Plant Height (hydrangea young plants; 0.2% aqueous solution): 15.1 cm
- Dwarfing Rate (hydrangea young plants; 0.2% aqueous solution): 2.6%
- Plant Height (hydrangea young plants; 0.4% aqueous solution): 11.7 cm
- Dwarfing Rate (hydrangea young plants; 0.4% aqueous solution): 24.5%
- dwarfing effect (hydrangea young plants; hydrangea young plants, 0.2% and 0.4% aqueous solutions): effective
- Plant Height (Poinsettia young plants; 0.3% aqueous solution): 19.2 cm
- Dwarfing Rate (Poinsettia young plants; 0.3% aqueous solution): 17.6%
- Plant Height (Poinsettia young plants; 0.5% aqueous solution): 18.1 cm
- Dwarfing Rate (Poinsettia young plants; 0.5% aqueous solution): 22.3%
- dwarfing effect (Poinsettia young plants; poinsettia young plants, 0.3% and 0.5% aqueous solutions): effective
- Plant Height (tomato young plants; 0.05% aqueous solution): 7.3 cm
- Dwarfing Rate (tomato young plants; 0.05% aqueous solution): 20.7%
- Plant Height (tomato young plants; 0.2% aqueous solution): 6.1 cm
- Dwarfing Rate (tomato young plants; 0.2% aqueous solution): 33.7%
- dwarfing effect (tomato young plants; tomato young plants, 0.05% and 0.2% aqueous solutions): effective

— patent US20040200144A1, “Plant growth regulator and a method of producing the regulator” (Dainichiseika Color & Chemicals Mfg. Co., Ltd., priority 2003, published 2004)
